Test results reported in patent EP4722201A1, “3-PHENYLISOXAZOLINE-5-CARBOXAMIDE COMPOUND, AND PREPARATION METHOD THEREFOR, HERBICIDAL COMPOSITION THEREOF AND USE THEREOF” (Jiangsu Flag Chemical Industry Co., Ltd, priority 2023, dated 2024).

Tests used:
Assay type in all cases: in vivo
Cyperus iria = assay: Indoor herbicide activity determination, post-emergence (stem and leaf spray at 2-4 leaf stage); conditions: 504 h, 60 g a.i./ha, determined 21 days later, read-out: Inhibition rate of fresh weight, Cyperus iria
Summary of the method: (§1)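 Potted weeds in sandy nutrient soil (pH 6.1, 1% organic matter) were grown in a constant-temperature illuminated room to the 2-4 leaf stage, then given a stem-and-leaf spray. Plants went back to the culture room once the spray had dried in shade. At 21 days, fresh weight inhibition % was calculated relative to untreated control plants.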

Digitaria sanguinalis = assay: as above; conditions: 504 h, 60 g a.i./ha, determined 21 days later, read-out: Inhibition rate of fresh weight, Digitaria sanguinalis
Summary of the method: as §1

Eclipta prostrata = assay: as above; conditions: 504 h, 60 g a.i./ha, determined 21 days later, read-out: Inhibition rate of fresh weight, Eclipta prostrata
Summary of the method: as §1

Alopecurus japonicus = assay: Indoor herbicide activity determination, Seed Treatment; pre-emergence (soil spray); conditions: Dosage 240 g a.i./ha
Summary of the method: (§2)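 Readout is percent inhibition of fresh weight relative to control plants, determined 21 days after treatment. Soil was sprayed one day after sowing, in a spray tower at 300 mm height and 390 mL/min nozzle flow, onto sandy soil of pH 6.1 with 1% organic matter.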

Alopecurus myosuroides = assay: as above; conditions: Dosage 240 g a.i./ha
Summary of the method: as §2

Eleusine indica = assay: as above; conditions: Dosage 240 g a.i./ha
Summary of the method: as §2

Leptochloa chinensis = assay: as above; conditions: Dosage 240 g a.i./ha
Summary of the method: as §2

Lolium multiflorum = assay: as above; conditions: Dosage 240 g a.i./ha
Summary of the method: as §2

Compound | inhibition at 60 g/ha (Cyperus iria) [%] | inhibition at 60 g/ha (Digitaria sanguinalis) [%] | inhibition at 60 g/ha (Eclipta prostrata) [%] | Herbicidal activities, Alopecurus japonicus (inhibition rate class) (Alopecurus japonicus) | Herbicidal activities, Alopecurus myosuroides (inhibition rate class) (Alopecurus myosuroides) | Herbicidal activities, Eleusine indica (inhibition rate class) (Eleusine indica) | Herbicidal activities, Leptochloa chinensis (inhibition rate class) (Leptochloa chinensis) | Herbicidal activities, Lolium multiflorum (inhibition rate class) (Lolium multiflorum)
COC(=O)[C@H]1C[C@@H](NC(=O)C2(C)CC(c3cc(F)cc(OC(F)(F)F)c3)=NO2)C1 (mixture of isomers) [I-159] | 60 to 80 | 80 to 100 | 60 to 80 | A (A indicates that the inhibition rate was greater than or equal to 80% to 100%) | A (A indicates that the inhibition rate was greater than or equal to 80% to 100%) | A (A indicates that the inhibition rate was greater than or equal to 80% to 100%) | A (A indicates that the inhibition rate was greater than or equal to 80% to 100%) | A (A indicates that the inhibition rate was greater than or equal to 80% to 100%)
O=C(N[C@H]1C[C@@H](C(=O)O)C1)C1(C(F)(F)F)CC(c2cc(F)cc(Cl)c2)=NO1 (mixture of isomers) [I-223] | 80 to 100 | 80 to 100 | 60 to 80 | A (A indicates that the inhibition rate was greater than or equal to 80% to 100%) | A (A indicates that the inhibition rate was greater than or equal to 80% to 100%) | A (A indicates that the inhibition rate was greater than or equal to 80% to 100%) | A (A indicates that the inhibition rate was greater than or equal to 80% to 100%) | A (A indicates that the inhibition rate was greater than or equal to 80% to 100%)
COC(=O)[C@H]1C[C@@H](NC(=O)C2(C(F)(F)F)CC(c3cc(F)cc(Cl)c3)=NO2)C1 (mixture of isomers) [I-225] | 80 to 100 | 80 to 100 | 60 to 80 | A (A indicates that the inhibition rate was greater than or equal to 80% to 100%) | A (A indicates that the inhibition rate was greater than or equal to 80% to 100%) | A (A indicates that the inhibition rate was greater than or equal to 80% to 100%) | A (A indicates that the inhibition rate was greater than or equal to 80% to 100%) | A (A indicates that the inhibition rate was greater than or equal to 80% to 100%)
O=C(N[C@H]1C[C@@H](C(=O)O)C1)C1(C(F)(F)F)CC(c2cc(Cl)cc(Cl)c2)=NO1 (relative stereo) [I-229] | 80 to 100 | 80 to 100 | 60 to 80 | A (A indicates that the inhibition rate was greater than or equal to 80% to 100%) | A (A indicates that the inhibition rate was greater than or equal to 80% to 100%) | A (A indicates that the inhibition rate was greater than or equal to 80% to 100%) | A (A indicates that the inhibition rate was greater than or equal to 80% to 100%) | A (A indicates that the inhibition rate was greater than or equal to 80% to 100%)
COC(=O)[C@H]1C[C@@H](NC(=O)C2(C(F)(F)F)CC(c3cc(Cl)cc(Cl)c3)=NO2)C1 (relative stereo) [I-231] | 80 to 100 | 80 to 100 | 60 to 80 | A (A indicates that the inhibition rate was greater than or equal to 80% to 100%) | A (A indicates that the inhibition rate was greater than or equal to 80% to 100%) | A (A indicates that the inhibition rate was greater than or equal to 80% to 100%) | A (A indicates that the inhibition rate was greater than or equal to 80% to 100%) | A (A indicates that the inhibition rate was greater than or equal to 80% to 100%)
O=C(N[C@H]1C[C@@H](C(=O)O)C1)C1(C(F)(F)F)CC(c2cc(F)cc(C(F)(F)F)c2)=NO1 (relative stereo) [I-241] | 80 to 100 | 80 to 100 | 60 to 80 | A (A indicates that the inhibition rate was greater than or equal to 80% to 100%) | A (A indicates that the inhibition rate was greater than or equal to 80% to 100%) | A (A indicates that the inhibition rate was greater than or equal to 80% to 100%) | A (A indicates that the inhibition rate was greater than or equal to 80% to 100%) | A (A indicates that the inhibition rate was greater than or equal to 80% to 100%)
COC(=O)[C@H]1C[C@@H](NC(=O)C2(C(F)(F)F)CC(c3cc(F)cc(C(F)(F)F)c3)=NO2)C1 (relative stereo) [I-243] | 80 to 100 | 80 to 100 | 60 to 80 | A (A indicates that the inhibition rate was greater than or equal to 80% to 100%) | A (A indicates that the inhibition rate was greater than or equal to 80% to 100%) | A (A indicates that the inhibition rate was greater than or equal to 80% to 100%) | A (A indicates that the inhibition rate was greater than or equal to 80% to 100%) | A (A indicates that the inhibition rate was greater than or equal to 80% to 100%)
O=C(N[C@H]1C[C@@H](C(=O)O)C1)C1(C(F)(F)F)CC(c2cc(Cl)cc(C(F)(F)F)c2)=NO1 (relative stereo) [I-245] | 80 to 100 | 80 to 100 | 60 to 80 | A (A indicates that the inhibition rate was greater than or equal to 80% to 100%) | A (A indicates that the inhibition rate was greater than or equal to 80% to 100%) | A (A indicates that the inhibition rate was greater than or equal to 80% to 100%) | A (A indicates that the inhibition rate was greater than or equal to 80% to 100%) | A (A indicates that the inhibition rate was greater than or equal to 80% to 100%)
O=C(N[C@H]1C[C@@H](C(=O)O)C1)C1(C(F)(F)F)CC(c2cc(F)cc(OC(F)(F)F)c2)=NO1 (relative stereo) [I-249] | 80 to 100 | 80 to 100 | 60 to 80 | A (A indicates that the inhibition rate was greater than or equal to 80% to 100%) | A (A indicates that the inhibition rate was greater than or equal to 80% to 100%) | A (A indicates that the inhibition rate was greater than or equal to 80% to 100%) | A (A indicates that the inhibition rate was greater than or equal to 80% to 100%) | A (A indicates that the inhibition rate was greater than or equal to 80% to 100%)
